Laboratory results as given in US20130296539A1, “MAGNETIC RESONANCE IMAGING AGENTS FOR CALCIFICATION” (priority 2012, published 2013).

Key:
[1] = Contrast agent concentration and TR dependence of UTE MRI signals; settings: 5 mg HA, 1 h at RT, washed with PBS, UTE MRI TE=100 μsec
Procedure: (§1) MRI can be performed on a 1.5 T GE Signa clinical scanner equipped with a custom low-pass birdcage coil (10 cm length, 6 cm diameter). The custom UTE sequence is based on previous work in the field {Irarrazabal, 1995; Song, 1998}.
5 mg HA is placed in 1.5 mL plastic Eppendorf tubes, then 0, 0.1, 1, 10, or 100 μM [Gd^3+-DOTA]-Thr-Pam-Na in 50 μL PBS is added to each. After vortexing 1 h at RT, the crystals are washed with 4×500 μL PBS and UTE MRI acquisition is performed using a fixed TE=100 μsec and varying TR of 17, 50, 200, 500 msec. Other acquisition parameters includes FOV=11 cm, slice thickness=10 mm, matrix size=256×256, NEX=2.

[2] = Quantitation of calcium salt specificity by UTE MRI; settings: 10 μM in PBS, 1 h at RT, UTE MRI before and after washing crystals
Procedure: as §1
5 mg of HA or the phosphate, oxalate, carbonate, or pyrophosphate salts of calcium is placed in 1.5 ml Eppendorf tube and is incubated with 10 μM [Gd^3+-DOTA]-Thr-Pam-Na in 50 μL PBS for 1 h at RT with continuous vortexing. UTE MRI acquisition is performed pre- and post-washing with 4×500 μL PBS using TR=200 msec and TE=100 μsec. Other acquisition parameters includes FOV=9 cm, slice thickness=10 mm, matrix size=256×256, NEX=2.

[3] = In-vitro UTE and GRE MRI of HA crystals bound by contrast agent; settings: short incubation with HA crystals in PBS, UTE sequence TR=200 msec, TE=100 μsec
Procedure: as §1
1 mM of [Gd^3+-DOTA]-Thr-Pam-Na is added to 5 mg of HA crystals in 50 μL PBS (pH 7.4) and is vortexed for 1 h at RT in a 1.5 mL Eppendorf tube. 5 mg HA in 1 mM of [Gd^3+-DOTA]-Thr and 50 μL PBS is used as a control. MRI, pre- and post-washing with 4×500 μL PBS, are acquired using an UTE sequence (TR=200 msec, TE=100 μsec) or conventional GRE sequence (TR=200 msec, TE=1.8 msec). Other acquisition parameters includes FOV=6 cm, slice thickness=5 mm, matrix size=256×256, NEX=4.

[4] = In-vivo UTE MRI of subcutaneously implanted HA crystals; settings: mice, intravenous injection, minimum of 4 h of clearance; compared with microCT
Procedure: as §1
50 mg of HA crystals is taken in 300 μL PBS, is implanted subcutaneously at right flank of anesthetized mice. UTE MRI is taken after implantation of HA crystal using TR/TE=200 msec/100 μsec, FOV=6 cm, slice thickness=5 mm, matrix size=256×256. 4 μmol of [Gd^3+-DOTA]-Thr-Pam-Na in 300 μL saline is injected intravenously. After 4 h of clearance, an UTE MRI is taken with same parameters.

With [Gd^3+-DOTA]-Thr-Pam-Na the “Lowest incubation concentration resulting in detectable signal enhancement” value [1] was 1 µM, the “Specificity for HA over other calcium salts” value [2] was “more than three fold higher specificity for HA over other calcium salts” and the “Detection of HA crystals by UTE MRI” value [3] was “able to detect HA crystals with high sensitivity”. The “In-vivo detection of HA crystals by UTE MRI” value [4] was “UTE MRI provides a sensitive detection of HA crystals in-vivo”.
